Tests used:
Leukemia subpanel = experiment: NCI 60 subpanel summary; format: cell-based, human
NSCL cancer subpanel = experiment: NCI 60 subpanel summary; format: cell-based, human
Colon cancer subpanel = experiment: NCI 60 subpanel summary; format: cell-based, human
CNS cancer subpanel = experiment: NCI 60 subpanel summary; format: cell-based, human
Melanoma subpanel = experiment: NCI 60 subpanel summary; format: cell-based, human
Breast cancer subpanel = experiment: NCI 60 subpanel summary; format: cell-based, human
c-Met = c-Met (Homo sapiens, UniProt P08581); experiment: c-Met kinase inhibitory assay (HTRF); format: biochemical
Pim-1 = Pim-1 (Homo sapiens, UniProt P11309); experiment: PIM kinase inhibitory assay (ADP-Glo); format: biochemical
[1] = tested on: NCI 60 cancer cell line panel; experiment: NCI 60 full panel summary
HOP-92 = details: Homo sapiens, HOP-92
UO-31 = details: Homo sapiens, UO-31
MDA-MB-231/ATCC = details: Homo sapiens
[2] = Homo sapiens, subpanel mean graph midpoint, read-out: MG-MID (GI50)
[3] = full panel MG-MID / subpanel MG-MID
[4] = single dose 10 μM, non-small lung carcinoma
[5] = single dose 10 μM, colon cancer
[6] = single dose 10 μM, renal carcinoma
[7] = single dose 10 μM, prostate carcinoma

Chain of Pim-1 (P11309 whole entry): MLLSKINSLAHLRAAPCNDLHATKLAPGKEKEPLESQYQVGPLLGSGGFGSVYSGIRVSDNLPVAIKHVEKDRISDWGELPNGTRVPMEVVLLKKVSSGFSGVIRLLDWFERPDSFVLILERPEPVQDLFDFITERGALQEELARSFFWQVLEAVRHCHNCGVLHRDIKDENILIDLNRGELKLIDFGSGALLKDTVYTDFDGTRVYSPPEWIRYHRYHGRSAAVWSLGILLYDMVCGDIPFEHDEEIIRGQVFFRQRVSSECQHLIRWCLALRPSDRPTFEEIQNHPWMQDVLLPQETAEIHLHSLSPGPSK
Chain of c-Met (P08581 25-1390): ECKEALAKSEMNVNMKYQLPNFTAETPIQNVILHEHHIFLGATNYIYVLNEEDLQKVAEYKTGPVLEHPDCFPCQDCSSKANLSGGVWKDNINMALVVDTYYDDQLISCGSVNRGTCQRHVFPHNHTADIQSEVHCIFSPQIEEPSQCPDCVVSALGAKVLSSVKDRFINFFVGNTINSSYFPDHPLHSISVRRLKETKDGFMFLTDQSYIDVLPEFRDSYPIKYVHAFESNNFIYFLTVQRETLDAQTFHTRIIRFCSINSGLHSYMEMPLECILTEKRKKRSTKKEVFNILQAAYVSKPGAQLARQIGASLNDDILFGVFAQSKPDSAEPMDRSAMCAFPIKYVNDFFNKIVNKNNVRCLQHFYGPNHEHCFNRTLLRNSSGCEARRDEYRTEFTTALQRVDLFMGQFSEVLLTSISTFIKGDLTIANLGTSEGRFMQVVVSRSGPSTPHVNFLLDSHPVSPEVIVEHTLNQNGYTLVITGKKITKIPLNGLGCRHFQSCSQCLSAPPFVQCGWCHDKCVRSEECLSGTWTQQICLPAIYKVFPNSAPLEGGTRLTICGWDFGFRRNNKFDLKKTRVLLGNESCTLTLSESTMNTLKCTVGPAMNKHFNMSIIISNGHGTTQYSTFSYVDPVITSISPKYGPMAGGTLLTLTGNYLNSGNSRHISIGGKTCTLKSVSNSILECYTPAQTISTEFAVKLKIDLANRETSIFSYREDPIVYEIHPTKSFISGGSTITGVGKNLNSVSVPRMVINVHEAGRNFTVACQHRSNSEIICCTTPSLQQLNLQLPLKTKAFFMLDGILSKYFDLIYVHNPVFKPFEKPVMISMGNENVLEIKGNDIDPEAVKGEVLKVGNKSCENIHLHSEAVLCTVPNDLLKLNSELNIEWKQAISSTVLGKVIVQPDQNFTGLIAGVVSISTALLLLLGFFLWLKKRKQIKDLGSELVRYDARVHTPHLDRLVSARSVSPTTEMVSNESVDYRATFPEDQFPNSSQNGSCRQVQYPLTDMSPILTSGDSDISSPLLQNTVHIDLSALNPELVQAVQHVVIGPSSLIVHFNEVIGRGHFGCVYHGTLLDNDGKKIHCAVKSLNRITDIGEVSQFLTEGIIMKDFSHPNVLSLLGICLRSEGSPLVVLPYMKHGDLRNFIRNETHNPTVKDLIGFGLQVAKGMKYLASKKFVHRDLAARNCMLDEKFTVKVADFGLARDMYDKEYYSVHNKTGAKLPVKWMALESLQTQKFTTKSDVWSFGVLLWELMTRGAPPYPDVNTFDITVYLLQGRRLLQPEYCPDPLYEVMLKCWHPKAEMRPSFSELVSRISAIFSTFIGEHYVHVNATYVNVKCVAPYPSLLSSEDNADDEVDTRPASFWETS

Compound c1ccc(-n2cc(C3CC(c4nc5ccccc5[nH]4)=NN3)c(-c3cc4ccccc4o3)n2)cc1 (stereo not shown) [3d, 3-(Benzofuran-2-yl)-4-(3-(1H-benzo[d]imidazol-2-yl)-4,5-dihydro-1H-pyrazol-5-yl)-1-phenyl-1H-pyrazole] has a GI50 (Leukemia subpanel; [2]) of 3.23 µM, a Selectivity index (Leukemia subpanel; [3]) of 1.30 and a GI50 (NSCL cancer subpanel; [2]) of 4.02 µM. The Selectivity index (NSCL cancer subpanel; [3]) was 1.04, the GI50 (Colon cancer subpanel; [2]) was 5.02 µM and the Selectivity index (Colon cancer subpanel; [3]) was 0.83. For the same compound, the GI50 (CNS cancer subpanel; [2]) was 3.55 µM, the Selectivity index (CNS cancer subpanel; [3]) was 1.18 and the GI50 (Melanoma subpanel; [2]) was 3.92 µM. The Selectivity index (Melanoma subpanel; [3]) was 1.07, the GI50 (Breast cancer subpanel; [2]) was 4.49 µM and the Selectivity index (Breast cancer subpanel; [3]) was 0.935. The IC50 (c-Met) was 0.911 µM, the IC50 (Pim-1) was 2.37 µM and the “times less sensitive, Pim-1, than to staurosporine” value (Pim-1; ratio of IC50 values) was 4.9. For the same compound, the GI50 ([1]; Homo sapiens, read-out: Full panel MG-MID (GI50), five-dose assay, mean graph midpoint over full panel) was 4.2 µM, the CC50 ([1]; Homo sapiens, read-out: LC50) was greater than 100 µM and the “Mean GI%” value ([1]; single dose 10 μM, mean over the NCI 60 panel) was 83.58%. The GI50 (MOLT-4; Homo sapiens, MOLT-4) was 4.13 µM, the GI% (MOLT-4; single dose 10 μM, leukemia) was 88.75% and the GI50 (EKVX; Homo sapiens, EKVX) was 2.69 µM. The GI% (EKVX; [4]) was 78.25%, the GI50 (HOP-92) was 4.78 µM and the GI50 (NCI-H226; Homo sapiens, NCI-H226) was 6.62 µM. For the same compound, the GI% (NCI-H226; [4]) was 34.35%, the GI50 (HCC-2998; Homo sapiens, HCC 2998) was 5.25 µM and the GI% (HCC-2998; [5]) was 70.76%. The GI50 (HCT-116; Homo sapiens, HCT-116) was 5.46 µM, the GI% (HCT-116; [5]) was 76.76% and the GI50 (HCT-15; Homo sapiens, HCT-15) was 3.18 µM. It also gave a GI% (HCT-15; [5]) of 83.02%, a GI50 (HT29; Homo sapiens, HT-29) of 6.46 µM and a GI% (HT29; [5]) of 64.97%. It also gave a GI50 (KM12; Homo sapiens, KM12) of 5.55 µM, a GI% (KM12; [5]) of 91.86% and a GI50 (SNB-19; Homo sapiens, SNB-19) of 3.77 µM. The GI% (SNB-19; single dose 10 μM, CNS cancer) was 92.86%, the GI50 (U251; Homo sapiens, U-251) was 3.72 µM and the GI% (U251; single dose 10 μM, CNS cancer) was 85.69%. The GI50 (LOX IMVI; Homo sapiens, LOX IMVI) was 3.71 µM, the GI% (LOX IMVI; single dose 10 μM, melanoma) was 75.62% and the GI50 (M14; Homo sapiens, M14) was 3.22 µM. For the same compound, the GI% (M14; single dose 10 μM, melanoma) was 83.05%, the GI50 (MDA-MB-435; Homo sapiens, MDA-MB-435) was 4.24 µM and the GI% (MDA-MB-435; single dose 10 μM, melanoma) was 83.49%. For the same compound, the GI50 (SK-MEL-2; Homo sapiens, SK-MEL-2) was 2.53 µM, the GI% (SK-MEL-2; single dose 10 μM, melanoma) was 99.44% and the GI50 (UACC-257; Homo sapiens, UACC-257) was 6.24 µM. It also gave a GI% (UACC-257; single dose 10 μM, melanoma) of 79.15%, a GI50 (OVCAR-3; Homo sapiens, OVCAR-3) of 4.91 µM and a GI% (OVCAR-3; single dose 10 μM, ovarian carcinoma) of 81.63%. For the same compound, the GI50 (786–0; Homo sapiens, 786-0) was 4.31 µM, the GI% (786–0; [6]) was 71.73% and the GI50 (A498; Homo sapiens, A498) was 12.7 µM. For the same compound, the GI% (A498; [6]) was 54.33%, the GI50 (ACHN; Homo sapiens, ACHN) was 3.11 µM and the GI% (ACHN; [6]) was 92.45%. The GI50 (TK-10; Homo sapiens, TK-10) was 4.97 µM, the GI% (TK-10; [6]) was 75.14% and the GI50 (UO-31) was 2.1 µM. For the same compound, the GI50 (PC-3; Homo sapiens, PC-3) was 3.47 µM, the GI% (PC-3; [7]) was 91.14% and the GI50 (DU-145; Homo sapiens, DU-145) was 5.15 µM. It also gave a GI% (DU-145; [7]) of 67.57%, a GI50 (MCF7; Homo sapiens, MCF7) of 2.75 µM and a GI% (MCF7; single dose 10 μM, breast carcinoma) of 85.98%. For the same compound, the GI50 (MDA-MB-231/ATCC) was 4.78 µM.

Source: publication PMC12486440, “Design, synthesis, and in silico studies of new benzofuran–pyrazole hybrids as multi-kinase inhibitors with potential antiproliferative activity” (RSC Advances, 2025)
